This is an account of results in patent US8445501B2, “Substituted 7-carboxamido-pyrrolo[3,2-d]pyrimidines” (Takeda GmbH, priority 2008, dated 2013).

The target of the test is T1, human PDE5 (Homo sapiens, UniProt O76074).
T1 construct: from tissue; host or cells: platelets from fresh blood of human donors (lysate, 10,000 g supernatant)
Description: Inhibition of the type 5 phosphodiesterase (PDE5) activity, modified SPA test with platelet lysate. Format: biochemical. Conditions: PDE5 from human platelet lysate, 0.5 μM cGMP. As to the method: Method for Measuring Inhibition of the Type 5 Phosphodiesterase (PDE5) Activity:
As a source for human PDE5, platelets are used. For that purpose, 150 ml fresh blood from human donors anticoagulated with citrate [final concentration 0.3% (w/v)] is centrifuged at 200 g for 10 min to obtain the so-called platelet-rich-plasma (PRP) as a supernatant. 1/10 volume of ACD solution (85 mM Na3-citrate, 111 mM D-glucose, 71 mM citric acid, pH 4.4) is added to 9/10 volume of PRP. After centrifugation (1,400 g, 10 min) the cell pellet is resuspended in 3 ml homogenization buffer (NaCl 140 mM, KCl 3.8 mM, EGTA (ethylene glycol tetraacetic acid) 1 mM, MgCl2 1 mM, Tris-HCl 20 mM, beta-mercaptoethanol 1 mM, pH 8.2) plus protease-inhibitor mix giving rise to the final concentrations of 0.5 mM Pefablock (Roche), 10 μM Leupeptin, 5 μM Trypsininhibitor, 2 mM Benzamidin and 10 μM Pepstatin A. The suspension is sonified and thereafter centrifuged for 15 min at 10,000 g. The resulting supernatant (platelet lysate) is used for enzymatic testings.
PDE5A1 activity is inhibited by the compounds of the invention in a modified SPA (scintillation proximity assay) test, supplied by Amersham Biosciences (see procedural instructions “phosphodiesterase [3H]cAMP SPA enzyme assay, code TRKQ 7090”), carried out in 96-well microtitre plates (MTP's). The test volume is 100 μl and contains 20 mM Tris buffer (pH 7.4), 0.1 mg of BSA (bovine serum albumin)/ml, 5 mM Mg^2+, 1 μM motapizone, 10 nM PDE2 inhibitor 2-(3,4-dimethoxybenzyl)-7-[(1R,2R)-2-hydroxy-1-(2-phenylethyl)propyl]-5-methylimidazo[5,1-f][1,2,4]triazin-4(3H)-one, 0.5 μM cGMP (cyclic guanosine monophosphate) (including about 50,000 cpm of [3H]cGMP as a tracer), 1 μl of the respective compound dilution in dimethylsulfoxide (DMSO) and sufficient PDE5-containing platelet lysat (10,000×g supernatant, see above) to ensure that 10-20 wt % of the cGMP is converted under the said experimental conditions. […] After a preincubation of 5 min at 37° C., the reaction is started by adding the substrate (cGMP) and the assay is incubated for a further 15 min; after that, it is stopped by adding SPA beads (50 μl). In accordance with the manufacturer's instructions, the SPA beads had previously been resuspended in water, but are then diluted 1:3 (v/v) in water; the diluted solution also contains 3 mM […] (IBMX) to ensure a complete PDE activity stop. After the beads have been sedimented (>30 min), the MTP's are analyzed in commercially available luminescence detection de-vices. The corresponding IC50 values of the compounds for the inhibition of PDE activity are deter-mined from the concentration-effect curves by means of non-linear regression.
The compound `O=C(N[C@H]1CC[C@@H](NC(=O)C2(O)CC2)CC1)c1c[nH]c2c(-c3ccc(F)cc3OCC3CC3)ncnc12` [Example 216, cis-4-(2-Cyclopropylmethoxy-4-fluoro-phenyl)-5H-pyrrolo[3,2-d]pyrimidine-7-carboxylic acid {4-[(1-hydroxy-cyclopropanecarbonyl)-amino]-cyclohexyl}-amide] gave an IC50 of 1.51 nM.

Turning to `CCC(=O)N1CCC(NC(=O)c2c[nH]c3c(-c4cc(F)ccc4OCC4CC4)ncnc23)CC1` [Example 85, 4-(2-Cyclopropylmethoxy-5-fluoro-phenyl)-5H-pyrrolo[3,2-d]pyrimidine-7-carboxylic acid (1-propionyl-piperidin-4-yl)-amide], inhibition was half-maximal at 1.58 nM (IC50).

Compound `C[C@H](O)C(=O)N[C@H]1CC[C@H](NC(=O)c2c[nH]c3c(-c4c(OCC5CC5)ccc5c4OCO5)ncnc23)CC1` [Example 173] showed an IC50 of 0.186 nM.

For the compound `O=C(NC1CCN(C(=O)C2CC2)CC1)c1c[nH]c2c(-c3c(OCC4CC4)ccc4c3OCO4)ncnc12` [Example 12, 4-(5-Cyclopropylmethoxy-benzo[1,3]dioxol-4-yl)-5H-pyrrolo[3,2-d]pyrimidine-7-carboxylic acid [1-(1-cyclopropyl-methanoyl)-piperidin-4-yl]amide], the IC50 was 0.0692 nM.

`CCOC(=O)N1CCC(NC(=O)c2c[nH]c3c(-c4c(OCC)ccc5c4OCO5)ncnc23)CC1` [Example 134, 4-{[4-(5-Ethoxy-benzo[1,3]dioxol-4-yl)-5H-pyrrolo[3,2-d]pyrimidine-7-carbonyl]-amino}-piperidine-1-carboxylic acid ethyl ester] showed an IC50 of 0.347 nM.

The compound `COCCOc1ccc2c(c1-c1ncnc3c(C(=O)N[C@H]4CC[C@@H](NC(=O)CO)CC4)c[nH]c13)OCO2` [Example 261, cis-4-[5-(2-Methoxy-ethoxy)-benzo[1,3]dioxol-4-yl]-5H-pyrrolo[3,2-d]pyrimidine-7-carboxylic acid [4-(2-hydroxy-acetylamino)-cyclohexyl]-amide] had an IC50 of 11 nM.

Consider `C[C@H](O)C(=O)N1CCC(NC(=O)c2c[nH]c3c(-c4cc(F)c(O)cc4OCC4CC4)ncnc23)CC1` [Example 282, 4-(2-Cyclopropylmethoxy-5-fluoro-4-hydroxy-phenyl)-5H-pyrrolo[3,2-d]pyrimidine-7-carboxylic acid [1-((S)-2-hydroxy-propionyl)piperidin-4-yl]-amide], for which inhibition was half-maximal at 251 nM (IC50).

In turn, `COCC(=O)N[C@H]1CC[C@H](NC(=O)c2c[nH]c3c(-c4cc(C)ccc4OCC4CC4)ncnc23)CC1` [Example 121, trans-4-(2-Cyclopropylmethoxy-5-methyl-phenyl)-5H-pyrrolo[3,2-d]pyrimidine-7-carboxylic acid [4-(2-methoxy-acetylamino)-cyclohexyl]-amide] gave an IC50 of 1.78 nM.

In turn, `COc1cc(-c2ncnc3c(C(=O)N[C@@H]4CCCN(C(=O)CO)C4)c[nH]c23)c(OCC2CC2)cc1F` [Example 229, 4-(2-Cyclopropylmethoxy-4-fluoro-5-methoxy-phenyl)-5H-pyrrolo[3,2-d]pyrimidine-7-carboxylic acid [(R)-1-(2-hydroxy-acetyl)piperidin-3-yl]-amide] gave an IC50 of 0.2 nM.

For `CCCCOc1ccc2c(c1-c1ncnc3c(C(=O)N[C@@H]4CCN(C(=O)OCC)C4)c[nH]c13)OCO2` [Example 151, (R)-3-{[4-(5-Butoxy-benzo[1,3]dioxol-4-yl)-5H-pyrrolo[3,2-d]pyrimidine-7-carbonyl]amino}-pyrrolidine-1-carboxylic acid ethyl ester], inhibition was half-maximal at 0.295 nM (IC50).

Regarding “trans-4-(2-Cyclopropylmethoxy-4-fluoro-phenyl)-5H-pyrrolo[3,2-d]pyrimidine-7-carboxylic acid [4-((S)-2-hydroxy-propionylamino)-cyclohexyl]-amide [Example 223]”, the “-log IC50 (mol/l)” value is 8.46.

`C[C@H](O)C(=O)N1CCC(CNC(=O)c2c[nH]c3c(-c4c(OCC5CC5)ccc5c4OCO5)ncnc23)C1` (stereo partly drawn) [Example 192, 4-(5-Cyclopropylmethoxy-benzo[1,3]dioxol-4-yl)-5H-pyrrolo[3,2-d]pyrimidine-7-carboxylic acid [1-((S)-2-hydroxy-propionyl)pyrrolidin-3-ylmethyl]-amide] had an IC50 of 0.832 nM.

`O=C(N[C@H]1CC[C@H](NC(=O)C2(O)CC2)CC1)c1c[nH]c2c(-c3ccc(F)cc3OCC3CC3)ncnc12` [Example 219, trans-4-(2-Cyclopropylmethoxy-4-fluoro-phenyl)-5H-pyrrolo[3,2-d]pyrimidine-7-carboxylic acid {4-[(1-hydroxy-cyclopropanecarbonyl)-amino]-cyclohexyl}-amide]: inhibition was half-maximal at 2 nM (IC50).

With `CC(=O)c1cc(-c2ncnc3c(C(=O)NC4CCN(C(=O)[C@H](C)O)CC4)c[nH]c23)c(OCC2CC2)cc1C` [Example 267, 4-(5-Acetyl-2-cyclopropylmethoxy-4-methyl-phenyl)-5H-pyrrolo[3,2-d]pyrimidine-7-carboxylic acid [1-((S)-2-hydroxy-propionyl)piperidin-4-yl]-amide], the IC50 was 0.324 nM.

Compound `COc1cc(OCC2CC2)c(-c2ncnc3c(C(=O)N[C@H]4CC[C@H](NC(C)=O)CC4)c[nH]c23)cc1F` [Example 106, trans-4-(2-Cyclopropylmethoxy-5-fluoro-4-methoxy-phenyl)-5H-pyrrolo[3,2-d]pyrimidine-7-carboxylic acid (4-acetylamino-cyclohexyl)-amide] gave an IC50 of 0.891 nM.

For `CCCCOc1ccc2c(c1-c1ncnc3c(C(=O)NC4CCCN(C(=O)COC)C4)c[nH]c13)OCO2` (centres unmarked) [Example 149, 4-(5-Butoxy-benzo[1,3]dioxol-4-yl)-5H-pyrrolo[3,2-d]pyrimidine-7-carboxylic acid [1-(2-methoxy-acetyl)piperidin-3-yl]-amide], the IC50 was 0.295 nM.

Turning to `CCOC(=O)N[C@H]1CC[C@@H](NC(=O)c2c[nH]c3c(-c4c(OCCOC)ccc5c4OCO5)ncnc23)CC1` [Example 167, cis-[4-({4-[5-(2-Methoxy-ethoxy)-benzo[1,3]dioxol-4-yl]-5H-pyrrolo[3,2-d]pyrimidine-7-carbonyl}-amino)-cyclohexyl]-carbamic acid ethyl ester], half-maximal inhibition (IC50) required 5.25 nM.

The compound `COc1cc(OCC2CC2)c(-c2ncnc3c(C(=O)N[C@@H]4CCN(C(C)=O)C4)c[nH]c23)cc1F` [Example 117, 4-(2-Cyclopropylmethoxy-5-fluoro-4-methoxy-phenyl)-5H-pyrrolo[3,2-d]pyrimidine-7-carboxylic acid ((R)-1-acetyl-pyrrolidin-3-yl)-amide] gave an IC50 of 1.1 nM.

For the compound `COCC(=O)N1CCCC(CNC(=O)c2c[nH]c3c(-c4c(OCC5CC5)ccc5c4OCO5)ncnc23)C1` (centres unmarked) [Example 30, 4-(5-Cyclopropylmethoxy-benzo[1,3]dioxol-4-yl)-5H-pyrrolo[3,2-d]pyrimidine-7-carboxylic acid [1-(2-methoxy-acetyl)piperidin-3-ylmethyl]-amide], the IC50 is 0.479 nM.

Compound `C[C@H](O)C(=O)N1CCOC(CNC(=O)c2c[nH]c3c(-c4c(OCC5CC5)ccc5c4OCO5)ncnc23)C1` (stereo partly drawn) [Example 194, 4-(5-Cyclopropylmethoxy-benzo[1,3]dioxol-4-yl)-5H-pyrrolo[3,2-d]pyrimidine-7-carboxylic acid [4-((S)-2-hydroxy-propionyl)-morpholin-2-ylmethyl]-amide] gave an IC50 of 0.832 nM.
